According to patent US20250152585A1, “PHARMACEUTICAL COMPOUND” (Duke Street Bio Limited, priority 2022, published 2025):
Read-outs that look alike come from different tables or passages of the source. Values belong to the molecule of their own block, whether it stands above or below them.

Columns and labels:
[1] = biological target: T1, full length N-terminally FLAG-tagged PARP1 (Homo sapiens, UniProt P09874); test: PARP1 probe displacement HTRF assay; details: for Selectivity: PARP1 over PARP2, ratio Kd (PARP2)/Kd (PARP1), probe displacement HTRF; for Kd: binned Kd, PARP1 probe displacement HTRF
[2] = biological target: T2, N-terminally FLAG-tagged PARP2 (amino acids 1-583) (Homo sapiens, UniProt Q9UGN5); test: PARP2 probe displacement HTRF assay; format: binding; details: binned Kd, PARP2 probe displacement HTRF
T2 construct: N-terminally FLAG-tagged PARP2 (amino acids 1-583)
Protocol: Data analysis was performed identical as for PARP1.

[3] = biological target: T1, full length N-terminally FLAG-tagged PARP1; test: PARP1 biochemical DELFIA assay (auto-PARylation); design: recombinant full length human N-terminally FLAG-tagged PARP1; details: binned IC50, PARP1 biochemical DELFIA assay

T1 sequence (P09874 whole entry, the tested form may be a part): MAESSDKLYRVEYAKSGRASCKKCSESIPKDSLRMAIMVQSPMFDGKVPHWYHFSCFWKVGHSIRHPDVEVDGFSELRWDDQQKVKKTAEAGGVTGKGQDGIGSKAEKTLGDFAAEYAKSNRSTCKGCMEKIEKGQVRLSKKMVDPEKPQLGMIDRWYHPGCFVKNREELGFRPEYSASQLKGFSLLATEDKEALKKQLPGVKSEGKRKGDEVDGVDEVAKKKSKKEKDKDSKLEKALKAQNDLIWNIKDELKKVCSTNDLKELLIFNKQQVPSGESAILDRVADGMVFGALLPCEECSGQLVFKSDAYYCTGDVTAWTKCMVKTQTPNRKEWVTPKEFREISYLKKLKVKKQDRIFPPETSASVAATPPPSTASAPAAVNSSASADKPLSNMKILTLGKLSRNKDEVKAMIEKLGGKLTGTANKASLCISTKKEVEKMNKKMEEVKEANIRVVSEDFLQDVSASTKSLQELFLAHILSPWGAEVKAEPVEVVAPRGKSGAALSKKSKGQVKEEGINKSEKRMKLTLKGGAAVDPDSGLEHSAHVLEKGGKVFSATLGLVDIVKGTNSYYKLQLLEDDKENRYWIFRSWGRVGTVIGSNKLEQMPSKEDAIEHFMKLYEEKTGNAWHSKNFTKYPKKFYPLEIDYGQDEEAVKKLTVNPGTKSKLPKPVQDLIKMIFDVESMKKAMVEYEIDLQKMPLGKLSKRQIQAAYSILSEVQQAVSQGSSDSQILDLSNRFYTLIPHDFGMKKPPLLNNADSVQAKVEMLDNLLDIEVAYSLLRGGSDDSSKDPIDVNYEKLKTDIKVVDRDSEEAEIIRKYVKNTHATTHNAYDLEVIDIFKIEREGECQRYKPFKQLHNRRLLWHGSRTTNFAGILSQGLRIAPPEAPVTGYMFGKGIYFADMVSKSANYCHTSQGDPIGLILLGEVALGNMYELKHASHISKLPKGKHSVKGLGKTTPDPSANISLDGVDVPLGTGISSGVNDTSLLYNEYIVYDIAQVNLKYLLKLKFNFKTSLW
T2 sequence (Q9UGN5 whole entry, the tested form may be a part): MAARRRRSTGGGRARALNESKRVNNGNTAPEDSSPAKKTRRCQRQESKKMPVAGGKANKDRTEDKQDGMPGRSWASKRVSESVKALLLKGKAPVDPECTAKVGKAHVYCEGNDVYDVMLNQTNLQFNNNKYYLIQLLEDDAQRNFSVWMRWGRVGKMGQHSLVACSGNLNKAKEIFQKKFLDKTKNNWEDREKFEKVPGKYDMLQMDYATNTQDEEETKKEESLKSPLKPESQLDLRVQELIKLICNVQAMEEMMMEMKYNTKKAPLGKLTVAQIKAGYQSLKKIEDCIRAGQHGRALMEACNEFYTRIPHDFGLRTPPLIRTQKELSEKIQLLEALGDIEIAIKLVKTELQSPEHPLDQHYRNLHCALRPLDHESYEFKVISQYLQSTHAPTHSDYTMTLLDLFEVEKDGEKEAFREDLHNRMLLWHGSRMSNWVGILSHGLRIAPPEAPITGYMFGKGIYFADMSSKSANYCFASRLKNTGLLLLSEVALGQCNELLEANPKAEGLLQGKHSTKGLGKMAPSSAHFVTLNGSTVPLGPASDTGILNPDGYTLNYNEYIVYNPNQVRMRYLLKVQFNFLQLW

SMILES: CNC(=O)c1ccc(N2CCC(N3CCCC(c4ccc(OC)c(=O)[nH]4)C3)CC2)cn1 (single isomer, unassigned) [Compound 147a]
Selectivity [1]: − (− indicates a value of less than 10) | Kd ([1]; read-out: PARP1 HTRF): 1000 to 10000 nM | Kd [2]: > 10000 nM | IC50 [3]: 1000 to 10000 nM

SMILES: CNC(=O)c1ccc(N2CCC(N3CCC(c4ccc(OC)c(=O)[nH]4)C3)CC2)cn1 (single isomer, unassigned) [Compound 148a]
Selectivity [1]: − (− indicates a value of less than 10) | Kd ([1]; read-out: PARP1 HTRF): > 10000 nM | Kd [2]: > 10000 nM | IC50 [3]: 1000 to 10000 nM

SMILES: CNC(=O)c1ccc(N2CCC(N3CCC(c4nc5onc(C)c5c(=O)[nH]4)C3)CC2)cn1 (single isomer, unassigned) [Compound 149b]
Selectivity [1]: − (− indicates a value of less than 10) | Kd ([1]; read-out: PARP1 HTRF): 1000 to 10000 nM | Kd [2]: > 10000 nM | IC50 [3]: 1000 to 10000 nM

SMILES: CCc1ccc(C2CCN(C3CCN(c4ccc(C(=O)NC)nc4F)CC3)C2)[nH]c1=O (single isomer, unassigned) [Compound 151b, 5-(4-(3-(5-ethyl-6-oxo-1,6-dihydropyridin-2-yl)pyrrolidin-1-yl)piperidin-1-yl)-6-fluoro-N-methylpicolinamide]
Selectivity [1]: +++ (+++ indicate a value of at least 100) | Kd ([1]; read-out: PARP1 HTRF): < 10 nM | Kd [2]: > 10000 nM | IC50 [3]: < 10 nM

SMILES: CNC(=O)c1ccc(N2CCC(N3CCC(c4ccc(OC)c(=O)[nH]4)C3)CC2)c(C(F)(F)F)n1 (single isomer, unassigned) [Compound 152b]
Selectivity [1]: ++ (++ indicates a value of 50 to less than 100) | Kd ([1]; read-out: PARP1 HTRF): 10 to 100 nM | Kd [2]: > 10000 nM | IC50 [3]: 10 to 100 nM

SMILES: CNC(=O)c1ccc(N2CCC(N3CCC(c4cc5ccc(F)cc5c(=O)[nH]4)C3)CC2)cn1 (single isomer, unassigned) [Compound 154a, 5-(4-(3-(7-fluoro-1-oxo-1,2-dihydroisoquinolin-3-yl)pyrrolidin-1-yl)piperidin-1-yl)-N-methylpicolinamide]
Kd ([1]; PARP1 HTRF): < 10 nM | Selectivity [1]: +++ (+++ indicate a value of at least 100) | Kd [2]: 100 to 1000 nM | IC50 [3]: < 10 nM

SMILES: CNC(=O)c1ccc(N2CCC(N3CCC(c4nc5c(c(=O)[nH]4)CCCC5)C3)CC2)cn1 (single isomer, unassigned) [Compound 155a]
Selectivity [1]: + (+ indicates a value of 10 to less than 50) | Kd ([1]; read-out: PARP1 HTRF): 10 to 100 nM | Kd [2]: 100 to 1000 nM | IC50 [3]: 10 to 100 nM

SMILES: CNC(=O)c1ccc(N2CCC(N3CCC(c4nc5c(c(=O)[nH]4)CCCC5)C3)CC2)cn1 (single isomer, unassigned) [Compound 155b]
Selectivity [1]: +++ (+++ indicate a value of at least 100) | Kd ([1]; read-out: PARP1 HTRF): < 10 nM | Kd [2]: 100 to 1000 nM | IC50 [3]: < 10 nM

SMILES: CNC(=O)c1ccc(N2CCC(N3CCC(c4nc5ccccc5c(=O)[nH]4)C3)CC2)c(C(F)F)n1 (single isomer, unassigned) [Compound 158a]
Selectivity [1]: +++ (+++ indicate a value of at least 100) | Kd ([1]; read-out: PARP1 HTRF): < 10 nM | Kd [2]: 1000 to 10000 nM | IC50 [3]: < 10 nM

SMILES: CNC(=O)c1ccc(N2CCC(N3CCC(c4nc5ccccc5c(=O)[nH]4)C3)CC2)c(C(F)F)n1 (single isomer, unassigned) [Compound 158b]
Selectivity [1]: +++ (+++ indicate a value of at least 100) | Kd ([1]; read-out: PARP1 HTRF): 10 to 100 nM | Kd [2]: 1000 to 10000 nM | IC50 [3]: 10 to 100 nM

SMILES: CNC(=O)c1ccc(N2CCC(N3CCCC(c4nc5onc(C)c5c(=O)[nH]4)C3)CC2)cn1 (single isomer, unassigned) [Compound 159a]
Selectivity [1]: − (− indicates a value of less than 10) | Kd ([1]; read-out: PARP1 HTRF): > 10000 nM | Kd [2]: > 10000 nM | IC50 [3]: > 10000 nM

SMILES: CNC(=O)c1ccc(N2CCC(N3CCCC(c4nc5onc(C)c5c(=O)[nH]4)C3)CC2)cn1 (single isomer, unassigned) [Compound 159b]
Selectivity [1]: + (+ indicates a value of 10 to less than 50) | Kd ([1]; read-out: PARP1 HTRF): 100 to 1000 nM | Kd [2]: > 10000 nM | IC50 [3]: 100 to 1000 nM

SMILES: CNC(=O)c1ccc(N2CCC(N3CCC(c4nc5ccc(C(F)(F)F)cc5c(=O)[nH]4)C3)CC2)cn1 (single isomer, unassigned) [Compound 161a]
Selectivity [1]: − (− indicates a value of less than 10) | Kd ([1]; read-out: PARP1 HTRF): 100 to 1000 nM | Kd [2]: > 10000 nM | IC50 [3]: 100 to 1000 nM

SMILES: CNC(=O)c1ccc(N2CCC(N3CCC(c4nc5ccc(C(F)(F)F)cc5c(=O)[nH]4)C3)CC2)cn1 (single isomer, unassigned) [Compound 161b]
Selectivity [1]: +++ (+++ indicate a value of at least 100) | Kd ([1]; read-out: PARP1 HTRF): < 10 nM | Kd [2]: 1000 to 10000 nM | IC50 [3]: < 10 nM

SMILES: CNC(=O)c1ccc(N2CCC(N3CCC(c4nc5[nH]nc(C(F)(F)F)c5c(=O)[nH]4)C3)CC2)cn1 (single isomer, unassigned) [Compound 162a, N-methyl-5-(4-(3-(4-oxo-3-(trifluoromethyl)-4,5-dihydro-1H-pyrazolo[3,4-d]pyrimidin-6-yl)pyrrolidin-1-yl)piperidin-1-yl)picolinamide]
Kd ([1]; PARP1 HTRF): 10 to 100 nM | Selectivity [1]: − (− indicates a value of less than 10) | Kd [2]: 100 to 1000 nM | IC50 [3]: 10 to 100 nM

SMILES: CNC(=O)c1ccc(N2CCC(N3CCC(c4nc5[nH]nc(C(F)(F)F)c5c(=O)[nH]4)C3)CC2)cn1 (single isomer, unassigned) [Compound 162b, N-methyl-5-(4-(3-(4-oxo-3-(trifluoromethyl)-4,5-dihydro-1H-pyrazolo[3,4-d]pyrimidin-6-yl)pyrrolidin-1-yl)piperidin-1-yl)picolinamide]
Kd ([1]; PARP1 HTRF): < 10 nM | Selectivity [1]: ++ (++ indicates a value of 50 to less than 100) | Kd [2]: 10 to 100 nM | IC50 [3]: < 10 nM

SMILES: CCc1ccc(C2CCN(C3CCN(c4ccc(C(=O)NC)nc4C(F)F)CC3)C2)[nH]c1=O (single isomer, unassigned) [Compound 164a]
Selectivity [1]: +++ (+++ indicate a value of at least 100) | Kd ([1]; read-out: PARP1 HTRF): < 10 nM | Kd [2]: 1000 to 10000 nM | IC50 [3]: < 10 nM

SMILES: CCc1ccc(C2CCN(C3CCN(c4ccc(C(=O)NCCF)nc4)CC3)C2)[nH]c1=O (single isomer, unassigned) [Compound 165b]
Selectivity [1]: +++ (+++ indicate a value of at least 100) | Kd ([1]; read-out: PARP1 HTRF): 10 to 100 nM | Kd [2]: 1000 to 10000 nM | IC50 [3]: 10 to 100 nM

SMILES: CNC(=O)c1ccc(N2CCC(N3CCC(c4cc5c(C(F)(F)F)cccc5c(=O)[nH]4)C3)CC2)cn1 (single isomer, unassigned) [Compound 167b]
Selectivity [1]: +++ (+++ indicate a value of at least 100) | Kd ([1]; read-out: PARP1 HTRF): < 10 nM | Kd [2]: 100 to 1000 nM | IC50 [3]: < 10 nM

SMILES: CNC(=O)c1ccc(N2CCC(N3CCCC(c4ccc(CC(F)(F)F)c(=O)[nH]4)C3)CC2)cn1 (single isomer, unassigned) [Compound 169b]
Selectivity [1]: +++ (+++ indicate a value of at least 100) | Kd ([1]; read-out: PARP1 HTRF): 10 to 100 nM | Kd [2]: > 10000 nM | IC50 [3]: < 10 nM

The next lines start with results.

Kd ([1]; read-out: PARP1 HTRF): 10 to 100 nM | Kd [2]: > 10000 nM | IC50 [3]: 10 to 100 nM
SMILES: CNC(=O)c1ccc(N2CCC(N3CCCC(c4nc5c(c(=O)[nH]4)CCCC5)C3)CC2)cn1 (single isomer, unassigned) [Compound 146b]
Selectivity [1]: +++ (+++ indicate a value of at least 100)

Selectivity [1]: − (− indicates a value of less than 10) | Kd ([1]; read-out: PARP1 HTRF): 1000 to 10000 nM | Kd [2]: > 10000 nM | IC50 [3]: 1000 to 10000 nM
SMILES: CNC(=O)c1ccc(N2CCC(N3CCCC(c4ccc(OC)c(=O)[nH]4)C3)CC2)cn1 (single isomer, unassigned) [Compound 147b]

Selectivity [1]: − (− indicates a value of less than 10) | Kd ([1]; read-out: PARP1 HTRF): 1000 to 10000 nM | Kd [2]: > 10000 nM | IC50 [3]: 1000 to 10000 nM
SMILES: CNC(=O)c1ccc(N2CCC(N3CCC(c4ccc(OC)c(=O)[nH]4)C3)CC2)cn1 (single isomer, unassigned) [Compound 148b]

Kd ([1]; read-out: PARP1 HTRF): 100 to 1000 nM | Kd [2]: > 10000 nM | IC50 [3]: 100 to 1000 nM
SMILES: CNC(=O)c1ccc(N2CCC(N3CCC(c4nc5onc(C)c5c(=O)[nH]4)C3)CC2)cn1 (single isomer, unassigned) [Compound 149a]
Selectivity [1]: + (+ indicates a value of 10 to less than 50)

Kd ([1]; read-out: PARP1 HTRF): < 10 nM | Kd [2]: 1000 to 10000 nM | IC50 [3]: < 10 nM
SMILES: CNC(=O)c1ccc(N2CCC(N3CCC(c4ccc(OC)c(=O)[nH]4)C3)CC2)c(C(F)(F)F)n1 (single isomer, unassigned) [Compound 152a]
Selectivity [1]: +++ (+++ indicate a value of at least 100)

Kd ([1]; read-out: PARP1 HTRF): 10 to 100 nM | Kd [2]: > 10000 nM | IC50 [3]: 10 to 100 nM
SMILES: CCc1ccc(C2CCN(C3CCN(c4ccc(C(=O)NC)nc4C(F)F)CC3)C2)[nH]c1=O (single isomer, unassigned) [Compound 164b]
Selectivity [1]: +++ (+++ indicate a value of at least 100)

Kd ([1]; read-out: PARP1 HTRF): < 10 nM | Kd [2]: 100 to 1000 nM | IC50 [3]: < 10 nM
SMILES: CCc1ccc(C2CCN(C3CCN(c4ccc(C(=O)NCCF)nc4)CC3)C2)[nH]c1=O (single isomer, unassigned) [Compound 165a]
Selectivity [1]: +++ (+++ indicate a value of at least 100)

Kd ([1]; read-out: PARP1 HTRF): 10 to 100 nM | Kd [2]: > 10000 nM | IC50 [3]: 10 to 100 nM
SMILES: CNC(=O)c1ccc(N2CCC(N3CCC(c4cc5c(C(F)(F)F)cccc5c(=O)[nH]4)C3)CC2)cn1 (single isomer, unassigned) [Compound 167a]
Selectivity [1]: ++ (++ indicates a value of 50 to less than 100)

Selectivity [1]: − (− indicates a value of less than 10) | Kd ([1]; read-out: PARP1 HTRF): > 10000 nM | Kd [2]: > 10000 nM | IC50 [3]: 1000 to 10000 nM
SMILES: CNC(=O)c1ccc(N2CCC(N3CCCC(c4ccc(CC(F)(F)F)c(=O)[nH]4)C3)CC2)cn1 (single isomer, unassigned) [Compound 169a]

Selectivity [1]: − (− indicates a value of less than 10) | Kd ([1]; read-out: PARP1 HTRF): < 10 nM | Kd [2]: < 10 nM | IC50 [3]: < 10 nM
SMILES: CNC(=O)c1ccc(N2CCC(N3CCC(c4nc5c(c(C(F)(F)F)cn5C)c(=O)[nH]4)C3)CC2)cn1 (single isomer, unassigned) [Compound 170a]
